# Reference: BindingDB's records for doi:10.1021/jm801627a (Vernalis (R&D), 2009)
# Target: Heat shock 70 kDa protein 1A (Homo sapiens, UniProt P0DMV8)
# Test: HSP70 Fluorescence Polarization Assay
# Conditions: pH 7.4; 23 °C
# Procedure: A fluorescein-labeled ATP-based probe was utilized, which binds to the GST fused ATPase domain (amino acids 3-383) of HSP70, producing an increase in mP. The presence of a compound which competitively binds to the same site as the probe would lead to decreased mP values, by increasing the amount of free probe. Compounds were tested as 10-point IC50s. Assay mixtures were incubated for three hours prior to reading on the Fusion (ex 485 nm; em 535 nm). The data was fitted using a 4 parameter logistical data model by XLFit 4 (IDBS).
# Heat shock 70 kDa protein 1A, sequence (P0DMV8 whole entry): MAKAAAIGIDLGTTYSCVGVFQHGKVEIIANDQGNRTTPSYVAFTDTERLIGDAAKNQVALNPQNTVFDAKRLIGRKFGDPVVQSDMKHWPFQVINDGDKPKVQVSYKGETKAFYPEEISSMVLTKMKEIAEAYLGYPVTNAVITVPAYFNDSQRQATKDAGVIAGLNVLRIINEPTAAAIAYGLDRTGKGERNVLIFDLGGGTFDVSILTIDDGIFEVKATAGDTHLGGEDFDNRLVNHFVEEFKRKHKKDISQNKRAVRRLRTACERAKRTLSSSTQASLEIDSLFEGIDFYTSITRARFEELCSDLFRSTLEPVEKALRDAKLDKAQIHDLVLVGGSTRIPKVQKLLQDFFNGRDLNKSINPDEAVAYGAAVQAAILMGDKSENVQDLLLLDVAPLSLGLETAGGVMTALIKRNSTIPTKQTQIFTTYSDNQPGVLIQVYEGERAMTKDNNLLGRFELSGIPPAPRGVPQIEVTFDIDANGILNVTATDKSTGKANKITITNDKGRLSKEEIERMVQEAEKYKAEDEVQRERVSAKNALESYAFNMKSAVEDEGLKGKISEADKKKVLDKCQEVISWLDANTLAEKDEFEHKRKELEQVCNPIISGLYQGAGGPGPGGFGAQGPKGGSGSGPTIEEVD
smiles,measurement,value
"Nc1ncnc2c1nc(NCc1ccc3ncccc3c1)n2[C@@H]1O[C@H](COCc2cc(F)c(F)c(F)c2)[C@@H](O)[C@H]1O [adenosine-derived inhibitor, 17]",IC50,< 400 nM
